According to PubChem BioAssay AID302 (DTP/NCI, 2004):
Several values for one entry are separate records, joined by “and”; a condition that tells them apart may be missing. Equal values may be shown once. Toxic doses and inconclusive results are not listed. How the source made its calls: active means survival T/C of 150% or more; inactive means T/C below 125% in these data.

Test system: BALB/c mice, Madison 109 lung carcinoma i.m., survival
Experiment: NCI In Vivo Anticancer Drug Screen. Data for tumor model Madison 109 Lung Carcinoma (intramuscular) in BALB/CM mice
Details: endpoint: median survival time, higher = longer survival
Procedure: The antitumor activity of compounds was measured in mice bearing transplantable tumors. Survival or tumor size were measured and the results are expressed as the measurement made in the treated group (T) divided by the measurement made in the vehicle treated control group (C). The tumor model used in this assay is Madison 109 Lung Carcinoma (intramuscular) in BALB/CM mice

[1] = dose: 3.12 mg/kg/injection, schedule: Q01DX009 (ip), vehicle: saline with Tween-80
[2] = dose: 6.25 mg/kg/injection, schedule: Q01DX009 (ip), vehicle: saline with Tween-80
[3] = dose: 12.5 mg/kg/injection, schedule: Q01DX009 (ip), vehicle: saline with Tween-80
[4] = dose: 25.0 mg/kg/injection, schedule: Q01DX009 (ip), vehicle: saline with Tween-80
[5] = dose: 50.0 mg/kg/injection, schedule: Q01DX009 (ip), vehicle: saline with Tween-80
[6] = dose: 0.12 mg/kg/injection, schedule: Q01DX009 (ip), vehicle: saline
[7] = dose: 0.12 mg/kg/injection, schedule: Q01DX009 (ip), vehicle: water
[8] = dose: 0.25 mg/kg/injection, schedule: Q01DX009 (ip), vehicle: saline
[9] = dose: 0.5 mg/kg/injection, schedule: Q01DX009 (ip), vehicle: saline
[10] = dose: 0.5 mg/kg/injection, schedule: Q01DX009 (ip), vehicle: water
[11] = dose: 1.0 mg/kg/injection, schedule: Q01DX009 (ip), vehicle: saline
[12] = dose: 1.0 mg/kg/injection, schedule: Q01DX009 (ip), vehicle: water
[13] = dose: 10.0 mg/kg/injection, schedule: Q01DX009 (ip), vehicle: saline with Tween-80
[14] = dose: 20.0 mg/kg/injection, schedule: Q01DX009 (ip), vehicle: saline with Tween-80
[15] = dose: 32.0 mg/kg/injection, schedule: Q01DX009 (ip), vehicle: saline with Tween-80
[16] = dose: 64.0 mg/kg/injection, schedule: Q01DX009 (ip), vehicle: saline with Tween-80
[17] = dose: 100.0 mg/kg/injection, schedule: Q01DX009 (ip), vehicle: saline with Tween-80
[18] = dose: 128.0 mg/kg/injection, schedule: Q01DX009 (ip), vehicle: saline with Tween-80
[19] = dose: 200.0 mg/kg/injection, schedule: Q01DX009 (ip), vehicle: saline with Tween-80
[20] = dose: 256.0 mg/kg/injection, schedule: Q01DX009 (ip), vehicle: saline with Tween-80
[21] = dose: 400.0 mg/kg/injection, schedule: Q01DX009 (ip), vehicle: saline with Tween-80
[22] = dose: 512.0 mg/kg/injection, schedule: Q01DX009 (ip), vehicle: saline with Tween-80
[23] = dose: 32.0 mg/kg/injection, schedule: Q01DX009 (ip), vehicle: saline

Measured: T/C

CC(C)CC(NC(=O)C(O)C(N)Cc1ccccc1)C(=O)O (stereo not drawn)
inactive: dose: 10.0 micrograms/kg/injection, schedule: Q01DX005 (ip), vehicle: saline 101 % of control

CN(CO)c1nc(N(C)CO)nc(N(C)CO)n1
inactive: dose: 1.56 mg/kg/injection, schedule: Q01DX009 (ip), vehicle: saline with Tween-80 94 % of control and 101 % of control | [1] 100 % of control and 112 % of control | [2] 100 % of control and 120 % of control | [3] 107 % of control and 114 % of control | [4] 104 % of control and 108 % of control | [5] 120 % of control

COc1cccc2c1C(=O)c1c(O)c3c(c(O)c1C2=O)C[C@@](O)(C(=O)CO)C[C@@H]3OC1CC(N)C(O)C(C)O1 (stereo partly drawn)
inactive: [6] 110 % of control | [7] 122 % of control | [8] 114 % of control | [9] 112 % of control and 116 % of control | [10] 119 % of control | [11] 94 % of control and 111 % of control | [12] 115 % of control | dose: 10.0 micrograms/mouse/injection, schedule: Q01DX005 (ip), vehicle: saline 96 % of control | dose: 20.0 micrograms/kg/injection, schedule: Q01DX005 (ip), vehicle: saline 123 % of control | dose: 20.0 micrograms/mouse/injection, schedule: Q01DX005 (ip), vehicle: saline 102 % of control | dose: 40.0 micrograms/kg/injection, schedule: Q01DX005 (ip), vehicle: saline 115 % of control | dose: 40.0 micrograms/mouse/injection, schedule: Q01DX005 (ip), vehicle: saline 105 % of control

COc1cccc2c1C(=O)c1c(O)c3c(c(O)c1C2=O)CC(O)(C(=O)CO)CC3OC1CC(N)C(O)C(C)O1 (stereo not drawn)
inactive: [13] 100 % of control | [14] 108 % of control

Cc1cn(C2CC(O)C(CO)O2)c(=O)[nH]c1=O (stereo not drawn)
inactive: [15] 94 % of control and 101 % of control | [16] 103 % of control and 108 % of control | [17] 108 % of control and 112 % of control | [18] 102 % of control and 105 % of control | [19] 100 % of control and 102 % of control | [20] 95 % of control and 97 % of control | [21] 101 % of control and 103 % of control | [22] 102 % of control and 103 % of control | dose: 800.0 mg/kg/injection, schedule: Q01DX009 (ip), vehicle: saline with Tween-80 106 % of control and 107 % of control | dose: 1600.0 mg/kg/injection, schedule: Q01DX009 (ip), vehicle: saline with Tween-80 96 % of control and 99 % of control

Nc1ccc(S(=O)(=O)c2ccc(N)cc2)cc1
inactive: [3] 102 % of control | [4] 103 % of control and 115 % of control | [5] 113 % of control and 117 % of control | [17] 112 % of control | [19] 96 % of control and 102 % of control | [21] 108 % of control

COC1C(O)CC(OC2CC(Oc3cc4cc5c(c(O)c4c(O)c3C)C(=O)[C@@H](OC3CC(OC4CC(OC6CC(C)(O)C(OC(C)=O)C(C)O6)C(O)C(C)O4)C(O)C(C)O3)[C@H]([C@H](OC)C(=O)[C@@H](O)[C@@H](C)O)C5)OC(C)C2OC(C)=O)OC1C (stereo partly drawn)
inactive: dose: 0.01 mg/kg/injection, schedule: Q01DX009 (ip), vehicle: saline 100 % of control | dose: 0.03 mg/kg/injection, schedule: Q01DX009 (ip), vehicle: saline 102 % of control | dose: 0.06 mg/kg/injection, schedule: Q01DX009 (ip), vehicle: saline 105 % of control | [6] 95 % of control

O=c1ccn(C2OC(CO)C(O)C2O)c(=O)[nH]1 (stereo not drawn)
inactive: [23] 111 % of control | dose: 64.0 mg/kg/injection, schedule: Q01DX009 (ip), vehicle: saline 99 % of control | dose: 128.0 mg/kg/injection, schedule: Q01DX009 (ip), vehicle: saline 93 % of control | dose: 256.0 mg/kg/injection, schedule: Q01DX009 (ip), vehicle: saline 104 % of control | dose: 512.0 mg/kg/injection, schedule: Q01DX009 (ip), vehicle: saline 98 % of control

O=C(N[C@H](CO)[C@H](O)c1ccc([N+](=O)[O-])cc1)C(Cl)Cl
inactive: [17] 118 % of control | [19] 107 % of control | [21] 118 % of control

O=C(O)CCCc1ccc(N(CCCl)CCCl)cc1
inactive: dose: 1.5 mg/kg/injection, schedule: Q01DX009 (ip), vehicle: saline with Tween-80 103 % of control | dose: 3.0 mg/kg/injection, schedule: Q01DX009 (ip), vehicle: saline with Tween-80 101 % of control | dose: 6.0 mg/kg/injection, schedule: Q01DX009 (ip), vehicle: saline with Tween-80 88 % of control

Cc1c[nH]c(=O)[nH]c1=O
inactive: [15] 115 % of control and 118 % of control | [16] 97 % of control and 112 % of control | [18] 86 % of control and 115 % of control | [20] 106 % of control and 118 % of control | [22] 101 % of control and 102 % of control

COc1cc2c(c(OC)c1OC)-c1ccc(OC)c(=O)cc1[C@@H](NC(C)=O)CC2
inactive: dose: 0.13 mg/kg/injection, schedule: Q01DX009 (ip), vehicle: saline 104 % of control | [8] 104 % of control | [9] 108 % of control | [11] 104 % of control

O=[N+]([O-])c1ccc(Cl)c([N+](=O)[O-])c1
inactive: dose: 5.0 mg/kg/injection, schedule: Q01DX009 (ip), vehicle: saline with Tween-80 102 % of control | dose: 6.25 mg/kg/injection, schedule: Q02DX009 (ip), vehicle: water 117 % of control | [13] 100 % of control | dose: 12.5 mg/kg/injection, schedule: Q02DX009 (ip), vehicle: water 113 % of control | [14] 93 % of control | dose: 25.0 mg/kg/injection, schedule: Q02DX009 (ip), vehicle: water 113 % of control | dose: 40.0 mg/kg/injection, schedule: Q01DX009 (ip), vehicle: saline with Tween-80 105 % of control | dose: 50.0 mg/kg/injection, schedule: Q02DX009 (ip), vehicle: water 107 % of control | dose: 80.0 mg/kg/injection, schedule: Q01DX009 (ip), vehicle: saline with Tween-80 111 % of control | dose: 100.0 mg/kg/injection, schedule: Q02DX009 (ip), vehicle: water 107 % of control

ClC1C(Cl)C(Cl)C(Cl)C(Cl)C1Cl (stereo not drawn)
inactive: [4] 116 % of control | [17] 119 % of control | [21] 86 % of control

COc1cccc2c1C(=O)c1c(O)c3c(c(O)c1C2=O)C[C@@](O)(C(C)=O)C[C@@H]3OC1CC(N)C(O)C(C)O1 (stereo partly drawn)
inactive: [7] 110 % of control | dose: 0.25 mg/kg/injection, schedule: Q01DX009 (ip), vehicle: water 102 % of control | [10] 118 % of control | [12] 118 % of control

Nc1ncnc2c1ncn2C1OC(COP(=O)(O)O)C(O)C1O (stereo not drawn)
inactive: dose: 100.0 mg/kg/injection, schedule: Q01DX009 (ip), vehicle: saline 103 % of control and 107 % of control | dose: 200.0 mg/kg/injection, schedule: Q01DX009 (ip), vehicle: saline 102 % of control and 115 % of control | dose: 400.0 mg/kg/injection, schedule: Q01DX009 (ip), vehicle: saline 112 % of control

COc1cccc2c1C(=O)c1c(O)c3c(c(O)c1C2=O)C[C@@](O)(/C(C)=N/NC(=O)c1ccccc1)C[C@@H]3OC1CC(N)C(O)C(C)O1 (stereo partly drawn)
inactive: dose: 0.25 mg/kg/injection, schedule: Q01DX009 (ip), vehicle: saline with Tween-80 104 % of control | dose: 0.5 mg/kg/injection, schedule: Q01DX009 (ip), vehicle: saline with Tween-80 111 % of control | dose: 1.0 mg/kg/injection, schedule: Q01DX009 (ip), vehicle: saline with Tween-80 124 % of control | dose: 2.0 mg/kg/injection, schedule: Q01DX009 (ip), vehicle: saline with Tween-80 86 % of control and 118 % of control

CCN(CC)CCOc1ccc2c(c1)C(=O)c1cc(OCCN(CC)CC)ccc1-2
inactive: dose: 16.0 mg/kg/injection, schedule: Q01DX009 (ip), vehicle: saline 101 % of control | [23] 108 % of control | dose: 62.0 mg/kg/injection, schedule: Q01DX009 (ip), vehicle: saline 103 % of control

CNc1nc(N(C)C)nc(N(C)C)n1
inactive: dose: 25.0 mg/kg/injection, schedule: Q01DX009 (ip), vehicle: saline 100 % of control | dose: 50.0 mg/kg/injection, schedule: Q01DX009 (ip), vehicle: saline 100 % of control

Cc1cc(N(CC(C)Br)CC(C)Br)ccc1N=Nc1ccccc1C(=O)O (stereo not drawn)
inactive: [1] 110 % of control | [2] 105 % of control | [3] 113 % of control
